Experiments:
Plasmopara viticola = Plasmopara viticola (downy mildew of grapevine), grapevine leaf disk assay, preventive; format: in vivo; details: foliar, 168 h, 200 ppm, grapevine leaf disks, assessed seven days after inoculation, read-out: control of fungal infection, Plasmopara viticola
Botrytis cinerea = Botrytis cinerea (grey mould), bean leaf disk assay, preventive; format: in vivo; details: foliar, 96 h, 200 ppm, bean leaf disks, assessed four days after inoculation, read-out: control of fungal infection, Botrytis cinerea
Septoria tritici = Septoria tritici (leaf blotch), liquid culture growth inhibition in nutrient broth; format: cell-based; details: Zymoseptoria tritici; 200 ppm; PDB broth, 24 C; inhibition of growth determined photometrically after 72 hrs; read-out: control of fungal infection, Septoria tritici
Fusarium culmorum = Fusarium culmorum (root rot), liquid culture growth inhibition in nutrient broth; format: cell-based; details: PDB broth, 24 C, inhibition of growth determined photometrically after 48 hrs, read-out: control of fungal infection, Fusarium culmorum
Protocol: Mycelia fragments or conidia suspensions of a fungus, prepared either freshly from liquid cultures of the fungus or from cryogenic storage, are directly mixed into nutrient broth. DMSO solutions of the test compound (max. 10 mg/ml) is diluted with 0.025% Tween20 by factor 50 and 10 μl of this solution is pipetted into a microtiter plate (96-well format) and the nutrient broth containing the fungal spores/mycelia fragments is then added to give an end concentration of the tested compound. The test plates are incubated at 24° C. and 96% rH in the dark. The inhibition of fungal growth is determined photometrically after 2-6 days and antifungal activity is calculated.
Fusarium culmorum (root rot): Conidia of the fungus from cryogenic storage were directly mixed into nutrient broth (PDB potato dextrose broth). After placing a (DMSO) solution of the test compounds into a microtiter plate (96-well format) the nutrient broth containing the fungal spores was added. The test plates were incubated at 24 C and the inhibition of growth was determined photometrically after 48 hrs.

[1] = system: Erysiphe graminis f.sp. tritici; assay: Erysiphe graminis f.sp. tritici (wheat powdery mildew), wheat leaf segment assay, preventive; format: in vivo; details: Blumeria graminis, foliar, 96 h; 200 ppm; wheat leaf segments; assessed four days after inoculation; read-out: control of fungal infection, Etysiphe graminis f.sp. tritici
Septoria nodorum = Septoria nodorum (wheat glume blotch), wheat leaf segment assay, preventive; format: in vivo; details: Parastagonospora nodorum, foliar, 96 h; 200 ppm; wheat leaf segments; assessed four days after inoculation; read-out: control of fungal infection, Septoria nodorum
Phytophthora infestans = assay: whole plant or invertebrate; format: in vivo; details: in Solanum lycopersicum, foliar, 96 h, read-out: control of fungal infection, Phytophthora infestans
Pythium ultimum = Pythium ultimum (Damping off), liquid culture growth inhibition in potato dextrose broth; format: cell-based; details: Globisporangium ultimum; 20 ppm; potato dextrose broth, 24° C.; inhibition of growth determined photometrically after 48 hours; read-out: control of fungal infection, Pythium ultimum

CON=CC(C)(C)NC(=O)C(Oc1cc(Cl)c2sccc2c1)SC (stereo not drawn) [Compound No. 83, 2-(7-Chloro-benzo[b]thiophen-5-yloxy)-N-(2-methoxyimino-1,1-dimethyl-ethyl)-2-methylsulfanyl-acetamide]
≥ 60%: pest or weed control at 200 ppm (Plasmopara viticola) | pest or weed control at 200 ppm (Botrytis cinerea) | inhibition of growth at 200 ppm (Septoria tritici)

C#Cc1cnc2c(Cl)cc(OC(SC)C(=O)NC(C)(C)C=NOC)cc2c1 (stereo not drawn) [Compound No. 115, 2-(8-Chloro-3-ethynyl-quinolin-6-yloxy)-N-(2-methoxyimino-1,1-dimethyl-ethyl)-2-methylsulfanyl-acetamide]
≥ 60%: pest or weed control at 200 ppm (Plasmopara viticola) | inhibition of growth at 200 ppm (Fusarium culmorum) | pest or weed control at 200 ppm [1] | pest or weed control at 200 ppm (Septoria nodorum) | pest or weed control at 200 ppm (Phytophthora infestans) | inhibition of growth at 20 ppm (Pythium ultimum)

CON=CC(C)(C)NC(=O)C(Oc1cc(C)c2ncsc2c1)SC (stereo not drawn) [Compound No. 89, N-(2-Methoxyimino-1,1-dimethyl-ethyl)-2-(4-methyl-benzothiazol-6-yloxy)-2-methylsulfanyl-acetamide]
≥ 60%: pest or weed control at 200 ppm (Plasmopara viticola) | pest or weed control at 200 ppm (Botrytis cinerea) | pest or weed control at 200 ppm [1] | inhibition of growth at 200 ppm (Septoria tritici) | pest or weed control at 200 ppm (Phytophthora infestans)

CCON=C(Cc1ccccc1)C(C)(C)NC(=O)C(Oc1ccc2ncc(Br)cc2c1)SC (stereo not drawn) [Compound No. 122, 2-(3-Bromo-quinolin-6-yloxy)-N-{2-[(E or Z)-ethoxyimino]-1,1-dimethyl-3-phenyl-propyl}-2-methylsulfanyl-acetamide]
≥ 60%: pest or weed control at 200 ppm (Plasmopara viticola) | pest or weed control at 200 ppm (Botrytis cinerea) | inhibition of growth at 200 ppm (Septoria tritici)

CSC(Oc1cc(C)c2ncc(I)cc2c1)C(=O)NC(C)(C)CC=NOC1CCCCO1 (stereo not drawn) [Compound No. 96, N-[1,1-Dimethyl-3-(tetrahydro-pyran-2-yloxyimino)-propyl]-2-(3-iodo-8-methyl-quinolin-6-yloxy)-2-methylsulfanyl-acetamide]
≥ 60%: pest or weed control at 200 ppm (Plasmopara viticola) | pest or weed control at 200 ppm (Botrytis cinerea) | inhibition of growth at 200 ppm (Septoria tritici) | inhibition of growth at 20 ppm (Pythium ultimum)

CON=C(Cc1ccccc1)C(C)(C)NC(=O)C(Oc1ccc2ncc(Br)cc2c1)SC (stereo not drawn) [Compound No. 121, 2-(3-Bromo-quinolin-6-yloxy)-N-{2-[(E or Z)-methoxyimino]-1,1-dimethyl-3-phenyl-propyl}-2-methylsulfanyl-acetamide]
≥ 60%: pest or weed control at 200 ppm (Plasmopara viticola) | pest or weed control at 200 ppm (Botrytis cinerea) | inhibition of growth at 200 ppm (Septoria tritici)

C=CCON=C(Cc1ccccn1)C(C)(C)NC(=O)C(Oc1ccc2ncc(Br)cc2c1)SC (stereo not drawn) [Compound No. 129, N-{2-[(E or Z)-Allyloxyimino]-1,1-dimethyl-3-pyridin-2-yl-propyl}-2-(3-bromo-quinolin-6-yloxy)-2-methylsulfanyl-acetamide]
≥ 60%: pest or weed control at 200 ppm (Botrytis cinerea) | inhibition of growth at 200 ppm (Septoria tritici)

CSC(Oc1cc(C)c2ncc(Br)cc2c1)C(=O)NC(C)(C)C=NOc1ccccc1 (stereo not drawn) [Compound No. 23, 2-(3-Bromo-8-methyl-quinolin-6-yloxy)-N-(1,1-dimethyl-2-phenoxyimino-ethyl)-2-methylsulfanyl-acetamide]
≥ 60%: pest or weed control at 200 ppm (Plasmopara viticola) | inhibition of growth at 200 ppm (Fusarium culmorum) | pest or weed control at 200 ppm [1] | pest or weed control at 200 ppm (Septoria nodorum) | pest or weed control at 200 ppm (Phytophthora infestans) | inhibition of growth at 20 ppm (Pythium ultimum)

C#Cc1cnc2c(C)cc(OC(SC)C(=O)NC(C)(C)C=NOC)cc2c1 (stereo not drawn) [Compound No. 112, 2-(3-Ethynyl-8-methyl-quinolin-6-yloxy)-N-(2-methoxyimino-1,1-dimethyl-ethyl)-2-methylsulfanyl-acetamide]
≥ 60%: pest or weed control at 200 ppm (Plasmopara viticola) | inhibition of growth at 200 ppm (Fusarium culmorum) | pest or weed control at 200 ppm (Septoria nodorum) | pest or weed control at 200 ppm (Phytophthora infestans) | inhibition of growth at 20 ppm (Pythium ultimum)

C#Cc1cnc2c(C)cc(OC(SC)C(=O)NC(C)(C)C=NOCC)cc2c1 (stereo not drawn) [Compound No. 113, N-(2-Ethoxyimino-1,1-dimethyl-ethyl)-2-(3-Ethynyl-8-methyl-quinolin-6-yloxy)-2-methylsulfanyl-acetamide]
≥ 60%: pest or weed control at 200 ppm (Plasmopara viticola) | inhibition of growth at 200 ppm (Fusarium culmorum) | pest or weed control at 200 ppm (Septoria nodorum) | pest or weed control at 200 ppm (Phytophthora infestans) | inhibition of growth at 20 ppm (Pythium ultimum)

CCCCON=CCC(C)(C)NC(=O)C(Oc1cc(C)c2ncc(I)cc2c1)SC (stereo not drawn) [Compound No. 39, N-(3-Butoxyimino-1,1-dimethyl-propyl)-2-(3-iodo-8-methyl-quinolin-6-yloxy)-2-methylsulfanylacetamide]
≥ 60%: pest or weed control at 200 ppm (Botrytis cinerea) | inhibition of growth at 200 ppm (Septoria tritici)

CON=CC(C)(C)NC(=O)C(Oc1cc(Cl)c2ncc(I)cc2c1)SC (stereo not drawn) [Compound No. 106, 2-(8-Chloro-3-iodo-quinolin-6-yloxy)-N-(2-methoxyimino-1,1-dimethyl-ethyl)-2-methylsulfanyl-acetamide]
≥ 60%: pest or weed control at 200 ppm (Plasmopara viticola) | pest or weed control at 200 ppm (Botrytis cinerea) | inhibition of growth at 200 ppm (Septoria tritici)

C=CCON=CCC(C)(C)NC(=O)C(Oc1cc(C)c2ncc(I)cc2c1)SC (stereo not drawn) [Compound No. 40, N-(3-Allyloxyimino-1,1-dimethyl-propyl)-2-(3-iodo-8-methyl-quinolin-6-yloxy)-2-methylsulfanyl-acetamide]
≥ 60%: pest or weed control at 200 ppm (Plasmopara viticola) | pest or weed control at 200 ppm (Botrytis cinerea) | inhibition of growth at 200 ppm (Septoria tritici)

CON=CC(C)(C)NC(=O)C(Oc1cc(C)c2scnc2c1)SC (stereo not drawn) [Compound No. 87, N-(2-methoxyimino-1,1-dimethyl-ethyl)-2-(7-methyl-benzothiazol-5-yloxy)-2-methylsulfanyl-acetamide]
≥ 60%: pest or weed control at 200 ppm (Botrytis cinerea) | inhibition of growth at 20 ppm (Pythium ultimum)

CON=CC(C)(C)NC(=O)C(OC)Oc1ccc2ncc(C#C[Si](C)(C)C)cc2c1 (stereo not drawn) [Compound No. 74, 2-Methoxy-N-(2-methoxyimino-1,1-dimethyl-ethyl)-2-(3-trimethylsilanylethynyl-quinolin-6-yloxy)-acetamide]
≥ 60%: pest or weed control at 200 ppm (Plasmopara viticola) | pest or weed control at 200 ppm (Botrytis cinerea) | pest or weed control at 200 ppm [1] | inhibition of growth at 200 ppm (Septoria tritici) | pest or weed control at 200 ppm (Phytophthora infestans) | inhibition of growth at 20 ppm (Pythium ultimum)

CON=CC(C)(C)NC(=O)C(Oc1cc(C)c2ccc(Br)cc2c1)SC (stereo not drawn) [Compound No. 85, 2-(7-bromo-4-methyl-naphthalen-2-yloxy)-N-(2-methoxyimino-1,1-dimethyl-ethyl)-2-methylsulfanyl-acetamide]
≥ 60%: pest or weed control at 200 ppm (Botrytis cinerea) | pest or weed control at 200 ppm [1] | inhibition of growth at 200 ppm (Septoria tritici)

C#CCON=CC(C)(C)NC(=O)C(Oc1cc(C)c2ncc(Br)cc2c1)SC (stereo not drawn) [Compound No. 29, 2-(3-Bromo-8-methyl-quinolin-6-yloxy)-N-(1,1-dimethyl-2-prop-2-ynyloxyimino-ethyl)-2-methylsulfanyl-acetamide]
≥ 60%: pest or weed control at 200 ppm (Plasmopara viticola) | inhibition of growth at 200 ppm (Fusarium culmorum) | pest or weed control at 200 ppm [1] | pest or weed control at 200 ppm (Septoria nodorum) | pest or weed control at 200 ppm (Phytophthora infestans) | inhibition of growth at 20 ppm (Pythium ultimum)

CON=CC(C)(C)NC(=O)C(Oc1cc(C)c2sccc2c1)SC (stereo not drawn) [Compound No. 84, N-(2-methoxyimino-1,1-dimethyl-ethyl)-2-(7-methyl-benzo[b]thiophen-5-yloxy)-2-methylsulfanyl-acetamide]
≥ 60%: pest or weed control at 200 ppm (Plasmopara viticola) | pest or weed control at 200 ppm (Botrytis cinerea) | inhibition of growth at 200 ppm (Septoria tritici)

C#Cc1cnc2c(C)cc(OC(SC)C(=O)NC(C)(C)C=NOCC=C)cc2c1 (stereo not drawn) [Compound No. 114, N-(2-Allyloxyimino-1,1-dimethyl-ethyl)-2-(3-Ethynyl-8-methyl-quinolin-6-yloxy)-2-methylsulfanyl-acetamide]
≥ 60%: pest or weed control at 200 ppm (Plasmopara viticola) | inhibition of growth at 200 ppm (Fusarium culmorum) | pest or weed control at 200 ppm [1] | pest or weed control at 200 ppm (Septoria nodorum) | pest or weed control at 200 ppm (Phytophthora infestans)

CCON=CC(C)(C)NC(=O)C(Oc1cc(Br)c2ncc(Br)cc2c1)SC (stereo not drawn) [Compound No. 33, 2-(3,8-Dibromo-quinolin-6-yloxy)-N-(2-ethoxyimino-1,1-dimethyl-ethyl)-2-methylsulfanyl-acetamide]
≥ 60%: pest or weed control at 200 ppm (Plasmopara viticola) | pest or weed control at 200 ppm (Botrytis cinerea) | inhibition of growth at 200 ppm (Septoria tritici)

C=CCON=CC(C)(C)NC(=O)C(Oc1ccc2ncc(Br)cc2c1)SC (stereo not drawn) [Compound No. 13, N-(2-Allyloxyimino-1,1-dimethyl-ethyl)-2-(3-bromo-quinolin-6-yloxy)-2-methylsulfanyl-acetamide]
≥ 60%: pest or weed control at 200 ppm (Plasmopara viticola) | pest or weed control at 200 ppm (Botrytis cinerea) | pest or weed control at 200 ppm [1] | inhibition of growth at 200 ppm (Septoria tritici) | pest or weed control at 200 ppm (Phytophthora infestans) | inhibition of growth at 20 ppm (Pythium ultimum)
